Reference: patent publication US20020025929A1, “METHOD OF BUILDING AND MAINTAINING BONE” (priority 1997, published 2002)
Marks after values point to notes of the source that are not given here.

Experiments:
Type in all cases: in vivo, Sprague-Dawley rats
[1] = tested on: osteopenic ovariectomized rats; assay: Longitudinal pQCT of proximal tibial metaphysis; settings: OVX rats, FIG. 1
Description: (§1) The metaphysis of proximal tibiae were scanned longitudinally from baseline, using a 960A pQCT loaded with Dichte software version 5.2 (Norland/Stratec, Ft. Atkinson, Wis.), using the technique described by Sato et al., —1995, JPET 272:1252-1259; Sato 1995, Bone 17:157S-162S). Volumetric bone mineral density (BMD, mg/cm3), cross-sectional area (X-Area), voxel number, and mineral content (BMC, mg) were quantitated for the whole cross-section of the metaphysis. Sites of excised bones were analyzed at higher resolution, using a micro-CT (Stratec). Specifically, distal femora (below the condyles, see Sato et al. 1995) and L-3 vertebra (mid-cross section, Helterbrand et al., 1997, Bone 21:401-409) were analyzed using voxel dimensions of 50 ×50×1000 μm and 70×70×1000 μm, respectively.
(§2) In a second study, virgin Sprague-Dawley rats were bilaterally ovariectomized (except for the sham-operated group), the ovariectomized animals randomized, and allowed to lose bone for one month prior to treatment in the manner described above. The animal groups, each containing 7-8 animals, included sham-operated animals (SHAM); bilaterally ovariectomized animals (OVX); bilaterally ovariectomized animals treated with 0.01, 0.3 or 1 mg/kg/day of compound 1a, respectively, for three months; bilaterally ovariectomized animals treated subcutaneously with PTH(1-34) at a dose of 10 μg/kg/day for three months; bilaterally ovariectomized animals treated subcutaneously with PTH(1-34) at a dose of 10 μg/kg/day and orally with compound 1a at a dose of 0.3 mg/kg/day, both compounds administered for three months; bilaterally ovariectomized animals treated subcutaneously with PTH(1-34) at a dose of 10 μg/kg/day for forty-five days followed by gavage administration of vehicle for forty-five days; bilaterally ovariectomized animals treated subcutaneously with PTH(1-34) at a dose of 10 μg/kg/day for forty-five days followed by oral administration of only compound 1a at a dose of 0.3 mg/kg/day for forty-five days; and bilaterally ovariectomized animals treated with 17α-ethynyl estradiol administered orally at a dose of 0.1 mg/kg/day.
In the second study, the proximal tibial metaphysis was scanned longitudinally by pQCT for rats from baseline.
Treatment, as indicated, was initiated after 1 month postovariectomy and continued for the following 3 months. Specifically, administration of compound 1a alone(closed triangles), PTH (1-34) alone (open triangles), in combination (closed squares), or in sequence (closed diamonds) were compared to OVX (open circles), Sham (closed circles), and estrogen (EE2, open diamonds) controls.

osteopenic rats = assay: Micro-CT of L-3 vertebra; settings: continuous dosing, 1a 0.01-1 mg/kg, 17α-ethynyl estradiol 0.1 mg/kg, PTH (1-34), 1a 0.3 mg/kg with PTH (1-34), FIG. 3
Description: as §1
In a second study, virgin Sprague-Dawley rats were bilaterally ovariectomized (except for the sham-operated group), the ovariectomized animals randomized, and allowed to lose bone for one month prior to treatment in the manner described above. […]

[2] = tested on: osteopenic ovariectomized rats; assay: Static and dynamic histomorphometry of L-1 vertebra; settings: OVX rats; for BFR/BS (bone formation rate) / BFR/TV (bone formation rate) / BV/TV (cancellous bone volume) / MAR (mineral apposition rate) / MS/BS (mineralizing surface) / Tb.N (trabecular number) / Tb.Sp (trabecular separation) / Tb.Th (trabecular thickness): L-1 vertebra, mean ± SEM; for BV/TV, trabecular thickness, trabecular number of L-1 vertebra (in words): second study; for MAR of L-1 vertebra (in words): compound 1a 0.01-1 mg/kg, EE2
Description: Oral administration was by gavage in a vehicle comprising 1 mL/kg of body weight of a 20% aqueous solution of hydroxypropyl-β-cyclodextrin. Compound 1a was administered by gavage in a vehicle of 1 mL/kg of body weight of a 20% aqueous solution of cyclodextrin. The estrogen-treated control animals were administered 0.1 mg/kg/day 17α-ethynyl estradiol by gavage.
Subcutaneous administration of PTH(1-34) was by injection of an acidified saline vehicle (0.001 N HCl and 2% heated-inactivated rat serum in physiological saline (Butler Co., Columbus, Ohio, USA).
For histomorphometry, L-1 vertebra were trimmed, using a low-speed diamond saw (Buehler Ltd., Lake Bluff, Ill.) and fixed in 70% ethanol. Specimens were stained for 4 days in Villanueva osteochrome bone stain (Polysciences Inc., Warrington, Pa.), destained, dehydrated in a graded series of alcohols, and defatted in acetone. L-1 vertebra were then infiltrated with methyl methacrylate (as described by Schenk et al. 1984) and embedded in a 75 ml: 19 ml: 2.5 g mixture of methyl methacrylate: dibutyl phthalate: benzoyl peroxide (Kodak, Rochester, N.Y.) and polymerized at room temperature. Longitudinal sections (4 and 8 μm) were cut on a Reichert-Jung 2065 microtome (Magee Scientific Inc., Dexter, Mich.). The 4 μm sections were stained with 6% silver nitrate (Von Kossa stain) before coverslipping; the 8 μm thick sections were mounted unstained for dynamic measurements. Sections were glued onto slides dipped in 0.5% gelatin, dried overnight, and coverslipped with Eukitt.
Histomorphometric measurements were made using an Optiphot-2 fluorescence microscope (Nikon, Melville, N.Y.) and a semi-automatic digitizing system (SummaSketch III, Summagraphics Co., Seymour, Conn.; KSS Image Analysis, KSS Scientific Consultants, Magna Utah) coupled to a PowerPC 7100/66 (Apple Computer, Cupertino, Calif.), using the image capture functions of NIH Image 1.59 (NIH, Bethesda, Md.). For L-1, the entire marrow region within the cortical shell was measured to derive trabecular bone parameters. Specifically, measurements were made of cancellous bone volume (BV/TV, %), trabecular thickness (Tb.Th, μm), number (Tb.N, #/mm) and separation (Tb.Sp, μm), mineralizing surface, mineral apposition rate, and bone formation rate, as previously described (Frost 1983; Jee et al. 1985; Parfitt et al., 1987).
as §2

[3] = treated continuously 3 months (90 days), at termination, 1a 0.01, 0.3, 1.0 mg/kg, EE2 0.1 mg/kg, PTH (1-34) 10 μg/kg
[4] = Cmpd 1a 0.01 mg/kg/day oral, 3 months
[5] = Cmpd 1a 0.3 mg/kg/day oral, 3 months
[6] = Cmpd 1a 1 mg/kg/day oral, 3 months
[7] = 3 months: PTH (1-34) 10 μg/kg/day s.c., PTH + 1a 0.3 mg/kg/day oral, EE2 0.1 mg/kg/day oral
[8] = PTH (1-34) 10 μg/kg/day s.c. 45 days, then vehicle or 1a 0.3 mg/kg/day oral 45 days

## COc1ccc(-c2sc3cc(O)ccc3c2Oc2ccc(OCCN3CCCCC3)cc2)cc1 [Compound 1a, 6-hydroxy-2-(4-methoxyphenyl)-3-[4-(2-piperidin-1-ylethoxy)phenoxy]-benzo[b]thiophene]
[1]; [3]
  volumetric BMD of proximal tibial metaphysis (pQCT): prevented further bone loss and had BMD significantly greater than OVX at termination
Osteopenic rats
  spinal BMD or BMC of L-3 vertebra (micro-CT): marginal effects
[2]; [4]
  BFR/BS (bone formation rate): 11.45 ± 1.9 μ/d × 100
  BFR/TV (bone formation rate): 40.30 ± 11.41 %/y
  BV/TV (cancellous bone volume): 24.4 ± 5.9^s %
  MAR (mineral apposition rate): 0.72 ± .06 μ/d
  MS/BS (mineralizing surface): 15.90 ± 2.21^s.o %
  Tb.N (trabecular number): 5.77 ± 1.2^s #/mm
  Tb.Sp (trabecular separation): 137.6 ± 37^s μ
  Tb.Th (trabecular thickness): 42.4 ± 6 μ
[2]; [5]
  BFR/BS (bone formation rate): 9.48 ± 1.43^o μ/d × 100
  BFR/TV (bone formation rate): 35.51 ± 9.14 %/y
  BV/TV (cancellous bone volume): 22.3 ± 3^s %
  MAR (mineral apposition rate): 0.66 ± .11 μ/d
  MS/BS (mineralizing surface): 14.47 ± 1.78^o %
  Tb.N (trabecular number): 6.07 ± .87^s #/mm
  Tb.Sp (trabecular separation): 131 ± 23^s.o μ
  Tb.Th (trabecular thickness): 36.8 ± 3^s μ
[2]; [6]
  BFR/BS (bone formation rate): 9.44 ± 2.4^o μ/d × 100
  BFR/TV (bone formation rate): 29.94 ± 8.7 %/y
  BV/TV (cancellous bone volume): 22.1 ± 5.2^s %
  MAR (mineral apposition rate): 0.72 ± .08 μ/d
  MS/BS (mineralizing surface): 13.05 ± 2.44^s %
  Tb.N (trabecular number): 5.24 ± .82^s #/mm
  Tb.Sp (trabecular separation): 153.1 ± 35^s μ
  Tb.Th (trabecular thickness): 42.4 ± 7.3 μ
[2]; continuous treatment
  dynamic parameters MS/BS, MAR, BFR/BS, BFR/TV of L-1 vertebra (in words): decreased MS/BS and BFR in a dose-dependent manner to Sham and EE2 levels
  BV/TV, trabecular thickness, trabecular number of L-1 vertebra (in words): little effect on BV/TV, trabecular thickness, or trabecular number
  MAR of L-1 vertebra (in words): not different from OVX

## C#C[C@]1(O)CC[C@H]2[C@@H]3CCc4cc(O)ccc4[C@H]3CC[C@@]21C [EE2, 17α-ethynyl estradiol]
[1]; [3]
  volumetric BMD of proximal tibial metaphysis (pQCT): BMD significantly greater than OVX at termination
Osteopenic rats
  spinal BMD or BMC of L-3 vertebra (micro-CT): marginal effects
[2]; [7]
  BFR/BS (bone formation rate): 8.76 ± 1.99^o μ/d × 100
  BFR/TV (bone formation rate): 32.76 ± 6.9 %/y
  BV/TV (cancellous bone volume): 21.8 ± 4.1^s %
  MAR (mineral apposition rate): 0.58 ± .05^s.o μ/d
  MS/BS (mineralizing surface): 14.97 ± 3.07^o %
  Tb.N (trabecular number): 6.20 ± .66 #/mm
  Tb.Sp (trabecular separation): 127.5 ± 17.5 μ
  Tb.Th (trabecular thickness): 35.3 ± 5.6^s μ
[2]; continuous treatment
  BV/TV, trabecular thickness, trabecular number of L-1 vertebra (in words): little effect on BV/TV, trabecular thickness, or trabecular number
  MAR of L-1 vertebra (in words): lowered MAR to below OVX, Sham, and compound 1a

## PTH: N-terminal 1-34 fragment of human parathyroid hormone, hPTH(1-34, Sequence ID No. 3); PTH/vehicle = 45 days PTH then vehicle
[1]; PTH (1-34) 45 days then discontinued or switched to compound 1a, at termination
  volumetric BMD of proximal tibial metaphysis (pQCT): BMD decreased to significantly below Sham
[1]; after PTH (1-34) for 45 days
  volumetric BMD of proximal tibial metaphysis (pQCT): regained BMD to Sham levels
Osteopenic rats
  spinal BMD or BMC of L-3 vertebra (micro-CT): improved BMD to significantly above OVX
[2]; [7]
  BFR/BS (bone formation rate): 25.1 ± 5^s,o μ/d × 100
  BFR/TV (bone formation rate): 94.5 ± 29.7^s.o %/y
  BV/TV (cancellous bone volume): 38.9 ± 9^o %
  MAR (mineral apposition rate): 1.0 ± .11^s,o μ/d
  MS/BS (mineralizing surface): 24.82 ± 2.62^s,o %
  Tb.N (trabecular number): 6.07 ± .86^s #/mm
  Tb.Sp (trabecular separation): 104.1 ± 29^o μ
  Tb.Th (trabecular thickness): 63.8 ± 11^s,o μ
[2]; [8]
  BFR/BS (bone formation rate): 17.68 ± 5.9^s μ/d × 100
  BFR/TV (bone formation rate): 55.17 ± 20.3^s %/y
  BV/TV (cancellous bone volume): 20.1 ± 3.9^s %
  MAR (mineral apposition rate): 0.89 ± .09^s,o μ/d
  MS/BS (mineralizing surface): 19.62 ± 4.88^s %
  Tb.N (trabecular number): 5.16 ± .98^s #/mm
  Tb.Sp (trabecular separation): 160 ± 32^s μ
  Tb.Th (trabecular thickness): 39.4 ± 7^s μ
[2]; PTH (1-34) discontinued (PTH/v) or switched to compound 1a (PTH/0.3) at 45 days
  dynamic parameters MS/BS, MAR, BFR/BS, BFR/TV of L-1 vertebra (in words): lowered MS/BS, BFR/BS and BFR/TV to OVX levels
[2]; PTH (1-34) discontinued or switched to compound 1a at 45 days
  BV/TV and trabecular thickness of L-1 vertebra (in words): decreased BV/TV and trabecular thickness to below Sham
[2]; continuous treatment
  dynamic parameters MS/BS, MAR, BFR/BS, BFR/TV of L-1 vertebra (in words): increased MS/BS, MAR, BFR/BS and BFR/TV to significantly above Sham and OVX
  BV/TV, trabecular thickness, trabecular number of L-1 vertebra (in words): improved BV/TV and trabecular thickness above OVX
